ChEMBL document CHEMBL1914417 (Bioorg Med Chem Lett, 2011)

Key:
[1] = target: T1, Muscarinic acetylcholine receptor M2 (Rattus norvegicus, UniProt P10980); test: Agonist activity at rat muscarinic M2 receptor expressed in CHO cells; type: functional, cell-based
T1 sequence (P10980 whole entry): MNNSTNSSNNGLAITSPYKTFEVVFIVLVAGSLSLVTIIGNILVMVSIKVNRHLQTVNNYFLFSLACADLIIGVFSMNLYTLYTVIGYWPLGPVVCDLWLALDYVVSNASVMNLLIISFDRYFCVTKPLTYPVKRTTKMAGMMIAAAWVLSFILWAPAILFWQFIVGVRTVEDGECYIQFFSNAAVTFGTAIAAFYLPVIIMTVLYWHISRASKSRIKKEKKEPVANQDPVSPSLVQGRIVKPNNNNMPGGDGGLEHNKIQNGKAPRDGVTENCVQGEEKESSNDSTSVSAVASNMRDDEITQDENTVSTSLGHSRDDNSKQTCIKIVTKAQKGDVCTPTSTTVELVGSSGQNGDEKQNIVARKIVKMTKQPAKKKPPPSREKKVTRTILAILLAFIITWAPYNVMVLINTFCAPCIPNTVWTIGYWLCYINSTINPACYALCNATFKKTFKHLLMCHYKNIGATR

[2] = target: T2, Muscarinic acetylcholine receptor M5 (Rattus norvegicus, UniProt P08911); test: Agonist activity at rat recombinant muscarinic M5 receptor by HTS cell based assay; type: functional
T2 sequence (P08911 whole entry): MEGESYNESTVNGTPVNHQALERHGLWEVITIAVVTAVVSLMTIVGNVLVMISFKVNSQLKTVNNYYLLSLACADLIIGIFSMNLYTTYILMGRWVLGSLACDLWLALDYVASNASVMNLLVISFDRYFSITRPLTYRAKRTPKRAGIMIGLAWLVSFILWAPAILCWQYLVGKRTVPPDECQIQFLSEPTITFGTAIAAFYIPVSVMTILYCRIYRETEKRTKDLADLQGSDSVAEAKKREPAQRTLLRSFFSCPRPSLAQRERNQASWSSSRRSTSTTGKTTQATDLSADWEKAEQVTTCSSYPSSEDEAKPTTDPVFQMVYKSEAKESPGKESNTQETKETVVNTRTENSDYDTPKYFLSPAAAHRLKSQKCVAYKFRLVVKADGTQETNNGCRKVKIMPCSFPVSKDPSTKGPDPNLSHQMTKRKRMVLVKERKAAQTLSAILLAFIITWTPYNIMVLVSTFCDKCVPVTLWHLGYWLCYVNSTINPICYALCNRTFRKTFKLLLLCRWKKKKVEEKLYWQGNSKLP

[3] = target: T3, Muscarinic acetylcholine receptor M4 (Homo sapiens, UniProt P08173); test: Agonist activity at human recombinant muscarinic M4 receptor by HTS cell based assay; type: functional
T3 sequence (P08173 whole entry): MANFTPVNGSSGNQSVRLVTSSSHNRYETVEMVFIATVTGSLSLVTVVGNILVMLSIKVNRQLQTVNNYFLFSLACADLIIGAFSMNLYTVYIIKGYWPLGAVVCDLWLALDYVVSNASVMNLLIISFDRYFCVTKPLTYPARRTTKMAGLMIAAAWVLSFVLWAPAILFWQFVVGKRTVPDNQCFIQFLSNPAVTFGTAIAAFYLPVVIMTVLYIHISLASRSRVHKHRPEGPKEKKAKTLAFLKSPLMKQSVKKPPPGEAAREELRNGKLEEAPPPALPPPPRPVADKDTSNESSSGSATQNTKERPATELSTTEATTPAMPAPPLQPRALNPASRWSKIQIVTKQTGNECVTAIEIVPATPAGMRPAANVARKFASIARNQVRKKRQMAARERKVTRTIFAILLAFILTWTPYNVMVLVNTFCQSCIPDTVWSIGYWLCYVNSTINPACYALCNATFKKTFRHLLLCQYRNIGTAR

[4] = target: Muscarinic acetylcholine receptor M3 (Homo sapiens, UniProt P20309); test: Agonist activity at human recombinant muscarinic M3 receptor by HTS cell based assay; type: functional
Sequence of Muscarinic acetylcholine receptor M3 (Homo sapiens, UniProt P20309) (P20309 whole entry): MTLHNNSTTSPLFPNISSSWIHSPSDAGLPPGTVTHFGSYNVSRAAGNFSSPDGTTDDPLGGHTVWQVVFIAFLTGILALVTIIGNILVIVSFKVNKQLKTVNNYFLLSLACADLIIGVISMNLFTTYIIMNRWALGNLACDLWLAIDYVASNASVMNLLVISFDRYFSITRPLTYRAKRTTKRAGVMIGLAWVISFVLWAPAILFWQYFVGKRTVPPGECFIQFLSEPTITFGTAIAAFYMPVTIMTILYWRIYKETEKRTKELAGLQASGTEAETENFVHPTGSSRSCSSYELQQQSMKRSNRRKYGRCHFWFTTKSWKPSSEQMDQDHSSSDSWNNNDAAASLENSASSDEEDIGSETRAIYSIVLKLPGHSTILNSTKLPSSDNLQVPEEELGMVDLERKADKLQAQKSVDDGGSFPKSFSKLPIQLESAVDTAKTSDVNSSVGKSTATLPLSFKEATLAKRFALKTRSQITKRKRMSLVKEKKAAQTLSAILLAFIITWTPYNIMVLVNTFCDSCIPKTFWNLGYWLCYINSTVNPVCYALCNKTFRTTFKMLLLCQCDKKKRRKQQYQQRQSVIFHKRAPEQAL

[5] = target: Muscarinic acetylcholine receptor M3 (Rattus norvegicus, UniProt P08483); test: Agonist activity at rat muscarinic M3 receptor expressed in CHO cells; type: functional, cell-based
Sequence of Muscarinic acetylcholine receptor M3 (Rattus norvegicus, UniProt P08483) (P08483 whole entry): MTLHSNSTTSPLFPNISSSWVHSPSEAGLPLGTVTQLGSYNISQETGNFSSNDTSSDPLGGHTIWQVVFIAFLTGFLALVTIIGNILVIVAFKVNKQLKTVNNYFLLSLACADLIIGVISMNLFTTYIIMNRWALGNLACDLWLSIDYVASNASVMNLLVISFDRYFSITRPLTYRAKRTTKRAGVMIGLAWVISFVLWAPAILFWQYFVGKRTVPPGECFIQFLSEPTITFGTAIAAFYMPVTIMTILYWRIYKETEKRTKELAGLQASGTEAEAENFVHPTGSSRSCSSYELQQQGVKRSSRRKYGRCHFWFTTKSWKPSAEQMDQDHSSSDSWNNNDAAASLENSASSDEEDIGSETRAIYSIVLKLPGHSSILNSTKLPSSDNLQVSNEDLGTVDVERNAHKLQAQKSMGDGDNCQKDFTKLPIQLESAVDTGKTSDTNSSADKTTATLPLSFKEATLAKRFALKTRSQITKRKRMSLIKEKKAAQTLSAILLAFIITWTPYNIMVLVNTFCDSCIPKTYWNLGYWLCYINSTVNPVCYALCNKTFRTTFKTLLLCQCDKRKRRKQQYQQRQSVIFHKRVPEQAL

[6] = target: T2, Muscarinic acetylcholine receptor M5; test: Agonist activity at rat muscarinic M5 receptor expressed in CHO cells; type: functional, cell-based
[7] = target: T4, Muscarinic acetylcholine receptor M2 (Homo sapiens, UniProt P08172); test: Agonist activity at human recombinant muscarinic M2 receptor by HTS cell based assay; type: functional
T4 sequence (P08172 whole entry): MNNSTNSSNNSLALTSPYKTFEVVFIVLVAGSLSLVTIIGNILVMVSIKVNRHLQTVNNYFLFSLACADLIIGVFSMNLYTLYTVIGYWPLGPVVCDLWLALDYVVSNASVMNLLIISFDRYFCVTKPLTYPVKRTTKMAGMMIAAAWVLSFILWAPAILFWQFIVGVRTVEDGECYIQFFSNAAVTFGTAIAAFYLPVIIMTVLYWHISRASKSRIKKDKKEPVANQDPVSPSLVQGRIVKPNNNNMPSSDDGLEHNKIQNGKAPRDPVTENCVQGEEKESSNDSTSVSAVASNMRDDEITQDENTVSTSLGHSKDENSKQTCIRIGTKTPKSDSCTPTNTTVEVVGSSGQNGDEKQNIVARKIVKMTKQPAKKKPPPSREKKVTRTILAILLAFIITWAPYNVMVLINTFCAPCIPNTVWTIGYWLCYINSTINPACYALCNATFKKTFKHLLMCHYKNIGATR

[8] = target: T5, Muscarinic acetylcholine receptor M4 (Rattus norvegicus, UniProt P08485); test: Agonist activity at rat recombinant muscarinic M4 receptor by HTS cell based assay; type: functional
T5 sequence (P08485 whole entry): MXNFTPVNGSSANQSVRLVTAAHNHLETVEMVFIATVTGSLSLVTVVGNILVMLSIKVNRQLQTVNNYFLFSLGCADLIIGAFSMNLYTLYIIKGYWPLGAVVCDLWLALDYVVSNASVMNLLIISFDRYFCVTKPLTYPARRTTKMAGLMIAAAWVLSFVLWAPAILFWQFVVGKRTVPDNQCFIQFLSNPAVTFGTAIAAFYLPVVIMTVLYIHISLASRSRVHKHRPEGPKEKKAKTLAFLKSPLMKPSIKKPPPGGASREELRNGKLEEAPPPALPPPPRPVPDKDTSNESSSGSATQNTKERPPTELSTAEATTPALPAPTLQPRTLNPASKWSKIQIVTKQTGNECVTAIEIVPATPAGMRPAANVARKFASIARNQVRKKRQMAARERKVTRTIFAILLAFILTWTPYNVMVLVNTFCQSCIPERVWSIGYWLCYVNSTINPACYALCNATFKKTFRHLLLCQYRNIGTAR

Measured: EC50

CCOC(=O)N1CCC(NCCNC(=O)c2ccccc2C)CC1
> 30 µM: all assays above

CCOC(=O)N1CCC(N2CCC[C@@H](NC(=O)c3ccccc3C)C2)CC1
> 30 µM: all assays above
